This note sets out measurements from ChEMBL document CHEMBL1139048, “Synthesis and in vitro antitumoral activity of new 3,5-dicyanopyridine derivatives” (2007).

Holding throughout (type): functional
For one assay, the system named is IGROV-1. The experiment in a line: Antiproliferative activity against human IGROV1 cells after 48 hrs by SRB protein assay. Conditions: IGROV-1, 48 h.
The next assay relates to HOP-92. Briefly: Antiproliferative activity against human HOP92 cells after 48 hrs by SRB protein assay. Conditions: HOP-92, 48 h.
Another assay deals with UO-31. Briefly: Antiproliferative activity against human UO31 cells after 48 hrs by SRB protein assay. Conditions: UO-31, 48 h.
In another assay the test system is RXF 393. The experiment in a line: Antiproliferative activity against human RXF393 cells after 48 hrs by SRB protein assay. Conditions: RXF 393, 48 h.
Another assay deals with A498. Briefly: Antiproliferative activity against human A498 cells after 48 hrs by SRB protein assay. Conditions: A498, 48 h.
The next assay concerns MCF7. The experiment in a line: Antiproliferative activity against human MCF7 cells after 48 hrs by SRB protein assay. Conditions: MCF7, 48 h.
In another assay the test system is NCI-H460. Briefly: Antiproliferative activity against human NCI-H460 cells after 48 hrs by SRB protein assay. Conditions: NCI-H460, 48 h.
The next assay concerns NCI-H522. The experiment in a line: Antiproliferative activity against human NCI-H522 cells after 48 hrs by SRB protein assay. Conditions: NCI-H522, 48 h.
The test system of a further assay is MDA-MB-435. The experiment in a line: Antiproliferative activity against human MDA-MB-435 cells after 48 hrs by SRB protein assay. Conditions: MDA-MB-435, 48 h.
The next assay deals with SNB-75. The experiment in a line: Antiproliferative activity against human SNB75 cells after 48 hrs by SRB protein assay. Conditions: SNB-75, 48 h.
A further assay relates to SK-OV-3. The experiment in a line: Antiproliferative activity against human SKOV3 cells after 48 hrs by SRB protein assay. Conditions: SK-OV-3, 48 h.
Another assay relates to SR. The experiment in a line: Antiproliferative activity against human SR cells after 48 hrs by SRB protein assay.
In a further assay the test system is T47D. Briefly: Antiproliferative activity against human T47D cells after 48 hrs by SRB protein assay.
In the next assay the test system is HCC 2998. Briefly: Antiproliferative activity against human HCC2998 cells after 48 hrs by SRB protein assay. Conditions: HCC 2998, 48 h.
In the next assay the test system is COLO 205. Briefly: Antiproliferative activity against human COLO205 cells after 48 hrs by SRB protein assay. Conditions: COLO 205, 48 h.
The next assay relates to Malme-3M. Briefly: Antiproliferative activity against human MALME3M cells after 48 hrs by SRB protein assay.
The next assay deals with UACC-62. The experiment in a line: Antiproliferative activity against human UACC62 cells after 48 hrs by SRB protein assay. Conditions: UACC-62, 48 h.
The next assay deals with SN12C. The experiment in a line: Antiproliferative activity against human SN12C cells after 48 hrs by SRB protein assay.
A further assay has as its system NCI-H226. The experiment in a line: Antiproliferative activity against human NCI-H226 cells after 48 hrs by SRB protein assay. Conditions: NCI-H226, 48 h.
A further assay deals with CCRF-CEM. Briefly: Antiproliferative activity against human CCRF-CEM cells after 48 hrs by SRB protein assay.
For another assay, the system named is SF-295. Briefly: Antiproliferative activity against human SF295 cells after 48 hrs by SRB protein assay. Conditions: SF-295, 48 h.
The next assay has as its system LOX IMVI. Briefly: Antiproliferative activity against human LOXIMVI cells after 48 hrs by SRB protein assay.
The next assay deals with OVCAR-3. Briefly: Antiproliferative activity against human OVCAR-3 cells after 48 hrs by SRB protein assay. Conditions: OVCAR-3, 48 h.
Another assay deals with MDA-MB-231. The experiment in a line: Antiproliferative activity against human MDA-MB-231 cells after 48 hrs by SRB protein assay. Conditions: MDA-MB-231, 48 h.
The test system of a further assay is SK-MEL-5. Briefly: Antiproliferative activity against human SK-MEL-5 cells after 48 hrs by SRB protein assay. Conditions: SK-MEL-5, 48 h.
Another assay deals with MOLT-4. The experiment in a line: Antiproliferative activity against human MOLT4 cells after 48 hrs by SRB protein assay. Conditions: MOLT-4, 48 h.
For another assay, the system named is RPMI-8226. The experiment in a line: Antiproliferative activity against human RPMI8226 cells after 48 hrs by SRB protein assay. Conditions: RPMI-8226, 48 h.
For another assay, the system named is CAKI-1. Briefly: Antiproliferative activity against human CAKI1 cells after 48 hrs by SRB protein assay. Conditions: CAKI-1, 48 h.
Another assay relates to ACHN. The experiment in a line: Antiproliferative activity against human ACHN cells after 48 hrs by SRB protein assay.
For a further assay, the system named is NCI/ADR-RES. The experiment in a line: Antiproliferative activity against human NCI/ADR-RES cells after 48 hrs by SRB protein assay.
In a further assay the test system is HT-29. Briefly: Antiproliferative activity against human HT29 cells after 48 hrs by SRB protein assay. Conditions: HT-29, 48 h.
The test system of a further assay is HCT-116. Briefly: Antiproliferative activity against human HCT116 cells after 48 hrs by SRB protein assay. Conditions: HCT-116, 48 h.
A further assay relates to K562. The experiment in a line: Antiproliferative activity against human K562 cells after 48 hrs by SRB protein assay. Conditions: K562, 48 h.
For another assay, the system named is M14. The experiment in a line: Antiproliferative activity against human M14 cells after 48 hrs by SRB protein assay. Conditions: M14, 48 h.
A further assay has as its system HOP-62. Briefly: Antiproliferative activity against human HOP62 cells after 48 hrs by SRB protein assay. Conditions: HOP-62, 48 h.
The next assay has as its system U-251. Briefly: Antiproliferative activity against human U251 cells after 48 hrs by SRB protein assay. Conditions: U-251, 48 h.

With `N#Cc1c(N)nc(N2CCOCC2)c(C#N)c1-c1ccc(Cl)cc1Cl`, the GI50 in the assay with IGROV-1 is 6.61 µM; in the assay on HOP-92, 3.31 µM; in the assay with UO-31 it was 3.24 µM; with RXF 393 it was 5.62 µM; with A498 it was 2.69 µM; with MCF7 it was 8.71 µM. For the same compound, the GI50 in the assay on NCI-H460 was 9.33 µM; with NCI-H522, 4.79 µM; with MDA-MB-435, 5.75 µM; in the assay with SNB-75, 6.31 µM.
Regarding `N#Cc1c(N)nc(N2CCOCC2)c(C#N)c1-c1cccc(O)c1`, the GI50 was 18.6 µM in the assay with IGROV-1, 14.8 µM in the assay with A498 and 17.4 µM in the assay on SNB-75.
Regarding `COc1ccc(OC)c(-c2c(C#N)c(N)nc(N3CCOCC3)c2C#N)c1`, the GI50 in the assay with SK-OV-3 is 12 µM; in the assay on SNB-75, 12.9 µM.
In the case of `N#Cc1c(N)nc(N2CCOCC2)c(C#N)c1-c1ccc(Cl)cc1`, the GI50 with IGROV-1 is 14.1 µM; in the assay with HOP-92, 8.91 µM; in the assay with RXF 393, 0.479 µM; with A498, 8.13 µM; with SNB-75, 14.5 µM.
For the compound `COc1cc(-c2c(C#N)c(N)nc(N3CCOCC3)c2C#N)cc(OC)c1OC`, the GI50 in the assay on SR was 13.5 µM; in the assay with T47D, 15.1 µM; in the assay on HCC 2998, 5.89 µM; in the assay with COLO 205, 5.62 µM; in the assay with SNB-75, 1.62 µM.
Take `N#Cc1c(N)nc(N2CCOCC2)c(C#N)c1-c1ccncc1`: the GI50 in the assay with IGROV-1 was 12.3 µM; in the assay with A498 it was 18.6 µM; in the assay on T47D it was 12.6 µM; with Malme-3M, 9.12 µM; with HCC 2998 it was 13.5 µM.
Turning to `N#Cc1c(N)nc(N2CCOCC2)c(C#N)c1-c1cccnc1`, in the assay on HCC 2998, the GI50 is 8.71 µM.
Consider `N#Cc1c(N)nc(N2CCOCC2)c(C#N)c1-c1ccccn1`, for which the GI50 in the assay on UACC-62 was 0.0339 µM; with SN12C, 0.038 µM; in the assay with NCI-H226 it was 0.513 µM.
In the case of `COc1ccc(-c2c(C#N)c(N)nc(N3CCOCC3)c2C#N)cc1`, the GI50 is 3.09 µM in the assay with IGROV-1; 5.01 µM with SK-OV-3; 7.41 µM in the assay with A498; 0.832 µM with T47D; 8.71 µM with NCI-H522; 2.14 µM in the assay with COLO 205.
`Cc1ccc(-c2c(C#N)c(N)nc(N3CCOCC3)c2C#N)o1` gave a GI50 in the assay on SNB-75 of 2.75 µM.
On to `N#Cc1c(NCc2ccccc2)nc(NCc2ccccc2)c(C#N)c1-c1cccc(O)c1`, for which the GI50 in the assay with UACC-62 is 2.09 µM; in the assay with SR it was 2.09 µM; in the assay on SN12C, 2.29 µM; with CCRF-CEM it was 3.39 µM; in the assay on SF-295 it was 2.95 µM; in the assay on LOX IMVI, 2.95 µM. The GI50 is 3.31 µM with OVCAR-3; 2.51 µM in the assay on HOP-92; 2.88 µM in the assay on NCI-H226; 2.24 µM in the assay on MDA-MB-231; 1.7 µM in the assay with SK-MEL-5; 2 µM with A498. Besides, the GI50 in the assay on MOLT-4 is 3.31 µM; with RPMI-8226, 3.09 µM; in the assay on CAKI-1 it was 2.75 µM; in the assay with ACHN, 2.63 µM; in the assay on MDA-MB-435, 2.88 µM.
As to `N#Cc1c(N)nc(N2CCOCC2)c(C#N)c1-c1c(Cl)cccc1Cl`, the GI50 in the assay with NCI/ADR-RES was 2.34 µM; with HT-29 it was 3.31 µM; in the assay with HCT-116, 3.09 µM; in the assay on OVCAR-3 it was 2.4 µM; in the assay on IGROV-1, 2 µM; with K562 it was 3.31 µM. Moreover, the GI50 in the assay on M14 was 2.45 µM; in the assay with MDA-MB-231 it was 3.55 µM; in the assay on HOP-62, 3.55 µM; in the assay with SK-OV-3 it was 4.07 µM; with A498, 3.72 µM; in the assay with U-251, 3.89 µM. The GI50 in the assay on MCF7 is 2.95 µM; in the assay on T47D it was 3.39 µM; in the assay on CAKI-1 it was 2.24 µM; with Malme-3M, 3.72 µM; in the assay on HCC 2998, 0.0182 µM; with NCI-H522, 2.34 µM. The GI50 with MDA-MB-435 is 1.55 µM; with SNB-75, 1.74 µM. The LC50 in the assay on HCC 2998 is 20 µM. In addition, the TGI in the assay with HCC 2998 (read-out: Log TGI (converted)) was 2.45 µM.
For `N#Cc1c(N)nc(N2CCOCC2)c(C#N)c1-c1ccccc1Cl`, the GI50 was 2.29 µM with A498, 0.0234 µM in the assay with NCI-H522 and 0.417 µM in the assay with SNB-75. Moreover, the TGI in the assay with NCI-H522 (read-out: Log TGI (converted)) was 2.82 µM.
On to `N#Cc1c(N)nc(N2CCSCC2)c(C#N)c1-c1ccc(O)cc1`, for which the GI50 in the assay with SR was 11.2 µM; in the assay with HOP-92, 10 µM; with HOP-62, 12.6 µM; in the assay on SNB-75 it was 11 µM.
